Experimental data from US20090017103A1, “Antisense oligonucleotides for prevention of metastasis formation of cancer cells” (priority 2003, published 2009).
Values joined by “and” are separate entries in the source; they are usually repeats but may differ in a detail not shown here. Equal entries are not always repeated.

Key:
[1] = tested on: MDA-MB-231 breast cancer cells; test: Clonogenicity assay (colony formation); type: cell-based, human; conditions: 20 μM
Protocol: For determining the response of MDA-MB-231 colony formation to exposure with antisense oligonucleotides and erucylphospho-NNN-trimethylpropanolamine (ErPC3) the following procedure was used. MDA-MB-231 cells were treated for various periods of time (see below), harvested and counted. Cells (5000) were then transferred into semi-solid medium containing 0.8t RPMI-methylcellulose and 30% FBS. Cells were plated onto 3.5 cm Petri-dishes (1 ml/dish) (NUNC, Wiesbaden, Germany) and usual cell culture conditions (37° C., 5% CO2 in humidified air) were applied. Colony formation (clusters of 30 or more cells) was visualized by staining with 3-[4,5-dimethylthiazol-2-yl]-2,5-diphenyltetrazolium-bromide (MTT; Serva, Heidelberg, Germany) and the resulting dark blue colonies were scored by an inverted microscope after 5-7 days. At least three dishes per treatment protocol were used.
Pending on the duration of treatment, 1×10^5-3×10^5 cells were transferred onto 6 well plates (Nunc, Wiesbaden, Germany) and grown for 24 h. For transfection, ASO stock solutions were prepared in medium without FBS. According to the protocol of the manufacturer, the respective ASO stock solution was mixed with lipofectamine to allow ASO-liposome complexes to form. To 200 μl medium containing ASO quantities resulting in 10 μM (Western blot and in vivo model) and in 5, 10, or 20 μM (clonogenicity assay) final ASO-concentrations, an equal volume of medium without FBS was added containing 5, 10, or 20 μl lipofectamine, respectively. In addition to the ASO treatment, a NSO control (20 μM final concentration with 20 μl lipofectamine) and a lipofectamine control (20 μl) were used. […] After 12 h the medium was changed, and cells were further grown for 48-72 h. In the case of a sequential combination treatment this first cycle was repeated with the respective combination partner.
The alkylphosphocholine ErPC3 was synthesized and provided by Prof. H. Eibl (MPI of Biophysical Chemistry, Göttingen, FRG). For treating MDA-MB-231 cells, ErPC3 which was kept as stock solution in ethanol and PBS (10 mM; ratio of diluents 1:1; V:V), was diluted in PBS resulting in final concentrations of 10, 14, and 20 μM. The medium containing ErPC3 was changed after 24 h in all experiments and the cells were further grown for 48-72 h without ErPC3 (for details of sequential exposure see below).
Sequential combination treatment consisted of two or three treatment cycles. The two cycle treatment started either with the ASO and was followed by ErPC3 or was performed with the reverse sequence. The three cycle treatment started either with two cycles of ASO followed by ErPC3 or an initial exposure to ErPC3 was followed by two cycles with an ASO.
Colony counts are presented as mean with corresponding standard deviation. For comparison of incidences between treatment groups the x^2 test was used and for comparison of the lesion sizes the Kruskal-Wallis test was applied. P values≦0.05 were considered significant. Predicted theoretical values of combinations were calculated according to the equation: C=a×b/100, where a and b are colony counts in percent of untreated control obtained in response to single agents. For each concentration applied theoretical values were calculated and compared with the real value of the combination. In addition, isobologram and multiple drug effect analysis was examined by a suitable program (CalcuSyn, Biosoft, Ferguson, USA) to study the nature of the interaction observed. For this purpose, the dose-effect curve for each drug alone was determined based on the experimental observations using the median-effect principle; the combination index (CI) for each combination was then calculated according to the following equation:
CI=(D)1/(Dx)1+(D)2/(Dx)2+(D1)×(D2)/(Dx)1×(Dx)2
where (D)1 and (D)2 are the doses of drug 1 and drug 2 that have x effect when used in combination and (Dx)1 and (Dx)2 are the doses of drug 1 and drug 2 that have the same x effect when used alone. […]

[2] = tested on: MDA-MB-231^GFP cells; test: In vivo treatment with mini-osmotic pumps (osteolytic bone metastasis model);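 as to Mean size of lesion: mean lesion size in relative units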;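 as to Size of lesion (per animal): lesion size in relative units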; design: species or system nude rats; conditions: for X-ray scan of hind legs: lytic lesions (in words): FIG. 5-7; for T/C × 100: mean lesion size vs NSO control rats; for Mean size of lesion / Size of lesion (per animal): mini-osmotic pumps; for Incidence of metastasis: mini-osmotic pumps s.c., 7 mg/kg daily over four weeks
[3] = tested on: osteonectin; test: Western blot of osteonectin expression after exposure to ASOs; type: cell-based, human; conditions: single exposure, lipofectamine, 10 μM
[4] = tested on: osteopontin; test: Western blot of osteopontin expression after exposure to ASOs; type: cell-based, human; conditions: MDA-MB231, lipofectamine, 10 μM
[5] = tested on: MDA-MB-231^GFP cells; test: In vivo model with pretreated MDA-MB-231^GFP cells (osteolytic bone metastasis); design: species or system nude rats; lesion size of the rat(s) that developed lytic metastasis, % of control / lesion sizes with respect to all animals of the group compared to untreated control / lesion size of individual animal compared to the untreated control / T/C % (mean lesion size compared to untreated control): concentration or dose not given beside the values; conditions: for T/C × 100: mean lesion size vs untreated control rats; for Incidence of metastasis: cells pretreated in vitro (10 μM);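 as to Mean size of lesion: mean lesion size in relative units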
[6] = tested on: bone sialoprotein II; test: Western blot of bone sialoprotein II expression after exposure to ASOs; type: cell-based, human; conditions: 10 μM

Substance: 5′-GCGAGGGAGTTCTTCTTCTA-3′ (GCGAGGGAGTTCTTCTTCTA; phosphorothioate backbone, further chemistry not given here) [NSO, reference compound]
- % Control ([1]; Exp. III a): 94%
- Mean colony no. ([1]; Exp. III a, control 456): 430
- % Control ([1]; Experiment II, single treatment): 96%
- Mean colony no. ([1]; Experiment II, single treatment, control 705): 676
- % Control ([1]; Experiment III b): 97%
- Mean colony no. ([1]; Experiment III b, control 517): 504
- X-ray scan of hind legs: lytic lesions (in words) ([2]; eight weeks after tumor cell implantation): clear increase of lytic lesions in the tibia and fibula
- X-ray scan of hind legs: lytic lesions (in words) ([2]; four weeks after tumor cell implantation, therapy from implantation): small lytic lesions in the tibia
- X-ray scan of hind legs: lytic lesions (in words) ([2]; six weeks after tumor cell implantation): visible lytic lesions in the tibia and fibula
- X-ray scan of hind legs: lytic lesions (in words) ([2]; ten weeks after tumor cell implantation): lytic metastases with clear deterioration are visible in all regions of the right hind leg
- T/C × 100 ([2]; week 4): 100
- Mean size of lesion ([2]; week 4): 33 R.U.
- Size of lesion (per animal) ([2]; week 4): 45 R.U. and 8 R.U. and 46 R.U.
- Incidence of metastasis ([2]; week 4): 3/3
- T/C × 100 ([2]; week 6): 100
- Mean size of lesion ([2]; week 6): 177 R.U.
- Size of lesion (per animal) ([2]; week 6): 307 R.U. and 29 R.U. and 194 R.U.
- Incidence of metastasis ([2]; week 6): 3/3
- T/C × 100 ([2]; week 8): 100
- Mean size of lesion ([2]; week 8): 273 R.U.
- Size of lesion (per animal) ([2]; week 8): 403 R.U. and 99 R.U. and 318 R.U.
- Incidence of metastasis ([2]; week 8): 3/3
- T/C × 100 ([2]; week 9): 100
- Mean size of lesion ([2]; week 9): 379 R.U.
- Size of lesion (per animal) ([2]; week 9): 453 R.U. and 278 R.U. and 406 R.U.
- Incidence of metastasis ([2]; week 9): 3/3
- T/C × 100 ([2]; week 10): 100
- Mean size of lesion ([2]; week 10): 429 R.U.
- Size of lesion (per animal) ([2]; week 10): 512 R.U. and 313 R.U. and 461 R.U.
- Incidence of metastasis ([2]; week 10): 3/3
- T/C × 100 ([2]; week 12): 100
- Mean size of lesion ([2]; week 12): 434 R.U.
- Size of lesion (per animal) ([2]; week 12): 534 R.U. and 316 R.U. and 453 R.U.
- Incidence of metastasis ([2]; week 12): 3/3
- osteonectin expression in relation to untreated control (100%) ([3]; MDA-MB231): 94%
- osteonectin expression in relation to untreated control (100%) ([3]; MDA-MB231^F (growing without FBS)): 80%
- osteonectin expression in relation to untreated control (100%) ([3]; MDA-MB435s): 97%
- osteopontin expression in relation to untreated control (100%) ([4]; single exposure): 99.5%
- osteopontin expression in relation to untreated control (100%) ([4]; twofold exposure): 99%
- T/C × 100 ([5]; 4 weeks): 78
- T/C × 100 ([5]; 6 weeks): 95
- T/C × 100 ([5]; 8 weeks): 140
- X-ray scan of hind legs: osteolytic lesions (in words) ([5]; FIG. 3 and FIG. 4, one rat each, cells pre-exposed): large osteolytic lesions in the femur, tibia and fibula
- Incidence of metastasis ([5]; observation period 4 weeks): 2/2
- Mean size of lesion ([5]; observation period 4 weeks, pretreated cells): 173 R.U.
- Incidence of metastasis ([5]; observation period 6 weeks): 2/2
- Mean size of lesion ([5]; observation period 6 weeks, pretreated cells): 287 R.U.
- Incidence of metastasis ([5]; observation period 8 weeks): 2/2
- Mean size of lesion ([5]; observation period 8 weeks, pretreated cells): 485 R.U.
- T/C % (mean lesion size compared to untreated control) ([5]; pretreated cells, after eight weeks): 140%
- average lesion sizes compared to untreated control ([5]; pretreated cells, after four weeks): about 78%
- lesion sizes with respect to all animals of the group compared to untreated control ([5]; pretreated cells, over observation period week 4 to week 8): 104%
- bone sialoprotein II expression in relation to untreated control (100%) ([6]; MDA-MB231, single exposure, electroporation): 99%
- bone sialoprotein II expression in relation to untreated control (100%) ([6]; MDA-MB231, single exposure, lipofectamine): 100%
- bone sialoprotein II expression in relation to untreated control (100%) ([6]; MDA-MB231, twofold exposure, lipofectamine): 97%
- bone sialoprotein II expression in relation to untreated control (100%) ([6]; MDA-MB231^F (growing without FBS), single exposure, lipofectamine): 100%
- bone sialoprotein II expression in relation to untreated control (100%) ([6]; MDA-MB435s, single exposure, lipofectamine): 65%
